According to US20240132910A1, “USE OF HISTIDINE RICH PEPTIDES AS A TRANSFECTION REAGENT FOR rAAV AND rBV PRODUCTION” (BioMarin Pharmaceutical Inc., priority 2021, published 2024):
Read-outs that look alike come from different tables or passages of the source. Ends that are not written are not given here.

Key:
[1] = Viability of transfected HEK293 cells (Trypan Blue exclusion), AAV9 production in Ambr15; format: cell-based; conditions: human, read-out: average cell viability
Procedure: The cell viabilities were quantified using an automated cell counter and Trypan Blue exclusion.
In Ambr15 minibioreactors (15 mL volume), AAV9 capsids were produced in HEK293 cells transfected with plasmids for producing AAV9 capsids and providing an AAV genome vector containing an GFP expression cassette using different complexation volumes of the LAH4 peptide. Prior to transfection, the plasmids were mixed with a concentration of the LAH4 peptide and incubated for 10 minutes and 60 minutes. The LAH4/plasmids mixtures had volumes that were 1% and 10% of the HEK293 cell culture volume. The titers were determined using ddPCR and GFP intensity was measured by attune flow cytometer.

in vitro = in vitro ADME; conditions: human, cells or culture medium
Procedure: Clearance of the ancillary materials such as transfection reagent during bioprocessing is emphasized. We hypothesized that LAH4 is largely degraded by cellular proteases after transfection process is completed. […] Different concentrations of the LAH4 peptide were added to cell culture volumes of 3 L and 100 L (i.e., bioreactors). At 4 hours post transfection, the LAH4 peptide concentration was reduced by ˜45% to ˜85% relative to initial LAH4 peptide concentration. At 24 hours post transfection, the LAH4 peptide concentration was reduced by ˜83% to ˜97% relative to initial LAH4 peptide concentration. At 48 hours post transfection, the LAH4 peptide concentration was reduced by ˜93% to ˜99% relative to initial LAH4 peptide concentration. At 72 hours post transfection, the LAH4 peptide concentration was reduced by ˜96% to ˜99% relative to initial LAH4 concentration.
Cell culturing: Suspension HEK293 cells are cultured according to the manufacturer's instructions in the provided cell culture media. For small scale transfection study HEK293 cells are seeded in the range of at a predetermined cell density in 125 ml Erlenmeyer shake flasks on the day of transfection.
LAH4 detection in cells: Samples are collected at different time points after transfection and analyzed using LC/MS assay.

[2] = Stability of DNA:transfection reagent complexes before transfection
Procedure: The LAH4 peptide was allowed to incubate with the plasmids for more than 1 hour for large scale (more than or equal 100 L) transient transfections since this incubation time allowed for improved stability of the transfection complexes such that the processes were robust and reproducible. It was discovered that LAH4: DNA complexes are stable at least for 1 hour. In a follow up study, the stability of LAH:DNA complexes are evaluated for up to 1 week when stored at 2-8° C. and/or room temperature and with or without exposure to ambient light.
Transfection: LAH4 solution from the same batch is kept at −20° C. in single use aliquots. LAH4 is thawed at RT and mixed with plasmid DNA containing GFP reporter gene. DNA:LAH4 complexes are kept in closed caps tubes to prevent evaporation at either room temperature or 2-8° C. for indicated periods of time before transfection.
Stability of LAH4:DNA complexes: Biophysical characterization of LAH4:DNA complexes is performed. Methods can include size and charge measurements.

Sf9 cells [3] = assay: rBV titers from bacmid-transfected Sf9 cells; format: cell-based, Spodoptera frugiperda; conditions: FIG. 18
Procedure: The titer of the rBV can be determined using a foci/viral plaque assay. This assay first includes the step of infecting cells with serial dilutions of a solution containing rBV. After infection occurs for a predetermined time, the rBV is removed from the cultures and the cells are incubated for a pre-determined time. After the pre-determined time has elapsed, a plaquing media (e.g., containing agarose) is added to the cultures and allowed to harden. The cells are allowed to further incubate for a pre-determined time and the number of plaques are counted after the pre-determined time. The titer is calculated using the following formula: Titer (plaque forming units/mL)=number of plaques×dilution factor×(1/(mL of inoculum/well)
AAV5 capsids were also produced in Sf9 cells. To produce the AAV5 capsids, Sf9 cells were transfected with bacmids having nucleotide sequences for generating AAV5 capsids or providing an AAV genome vector using the control transfection reagent and different HRPs. […] In culture, the rBVs generated from the initial bacmid transfection subsequently infect other Sf9 cells that in turn generated more rBVs.

Sf9 cells [4] = assay: AAV5 capsids from Sf9 cells infected with the rBVs, ddPCR; format: cell-based, Spodoptera frugiperda; conditions: rBVs from transfected Sf9 cells, FIG. 19
Procedure: The different rBVs were collected and used to further infect naive Sf9 cells to generate AAV5 capsids, where the rBVs have nucleotide sequences for generating AAV5 capsids. The titers were determined using ddPCR. […] The AAV5 capsids produced using LAH4-L1-F4 had concentrations of the VP1 capsid protein and ratios of capsid to vector genomes that were the same as AAV5 capsids produced using the control transfection reagent.

Substance: KKALLALALHHLAHLALHLALALKKA [LAH4]
- viability ([1]; Ambr15, 1% complexation volume, FIG. 10D): > 75%
- viability ([1]; Ambr15, 10% complexation volume, FIG. 10D): ~72.5%
- viability ([1]; Ambr15, 10 minute complexation time, FIG. 10H): ~72.5%
- viability ([1]; Ambr15, 60 minute complexation time, FIG. 10H): > 75%
- metabolised at 72 h (in vitro): > 95%
- stability of LAH4:DNA complexes [2]: ≥ 1 h

Substance: KKALLALALHHLAHLAHHLALALKKA (Synthetic LAH5 peptide)
- rBV titers versus control reagent (Sf9 cells [3]): comparable

Substance: KKALLAHFFHLLALLALHFFHALKKA (Synthetic LAH4-L1-F4 peptide)
- AAV5 capsid titers versus control reagent (Sf9 cells [4]): comparable
- rBV titers versus control reagent (Sf9 cells [3]): comparable

Substance: polyethylenimine [PEI, reference compound]
- stability when mixed with plasmids and incubated for extended periods of time [2]: does not remain stable
